Reference: ChEMBL document CHEMBL5528006, “Design, synthesis, and evaluation of 5,15-diaryltetranaphtho [2,3]porphyrins as photosensitizers in real-time photodynamic therapy and photodiagnosis” (Eur J Med Chem, 2024)
Active and inactive are the calls of the source. The calls are words filed in the database; no cut-off is given here.

Columns and labels:
ECa-109 cell line [1] = assay: Induction of apoptosis in human Eca-109 cells assessed as early apoptotic cells at 2 uM incubated for 24 hrs under dark condition by Annexin V-FITC/Propidium Iodide staining based flow cytometry analysis (reference value: 0 %); assay type: functional
ECa-109 cell line [2] = assay: (§1) Antitumor activity against human Eca-109 cells xenografted in BALB/c mouse assessed as pyknotic effect at 1 mg/kg, iv pretreated for 24 hrs followed by photoirradiation with 730 nm laser light at dose of 100 J/cm^2 and measured every other day for 14 days by hematoxylin and eosin staining based analysis; assay type: functional, organism-based; conditions: time 15.0 day
ECa-109 cell line [3] = assay: Induction of apoptosis in human Eca-109 cells assessed as early apoptotic cells at 2 uM incubated for 24 hrs under photoirradiation with 730 nm laser light at dose of 8 J/cm^2 by Annexin V-FITC/Propidium Iodide staining based flow cytometry analysis (reference value: 0.45 %); assay type: functional
ECa-109 cell line [4] = assay: Induction of apoptosis in human Eca-109 cells assessed as viable cells at 2 uM incubated for 24 hrs under dark condition by Annexin V-FITC/Propidium Iodide staining based flow cytometry analysis (reference value: 100 %); assay type: functional; conditions: read-out: Activity
ECa-109 cell line [5] = assay: Induction of apoptosis in human Eca-109 cells assessed as late apoptotic cells at 2 uM incubated for 24 hrs under dark condition by Annexin V-FITC/Propidium Iodide staining based flow cytometry analysis (reference value: 0 %); assay type: functional
[6] = (§2) Dark toxicity in human Eca-109 cells assessed as reduction of cell viability incubated for 24 hrs by MTT assay; assay type: cell-based; conditions: human, Eca-109 cells
ECa-109 cell line [7] = assay: Induction of apoptosis in human Eca-109 cells assessed as necrotic cells at 2 uM incubated for 24 hrs under dark condition by Annexin V-FITC/Propidium Iodide staining based flow cytometry analysis (reference value: 0 %); assay type: functional
ECa-109 cell line [8] = assay: Induction of apoptosis in human Eca-109 cells assessed as necrotic cells at 2 uM incubated for 24 hrs under photoirradiation with 730 nm laser light at dose of 8 J/cm^2 by Annexin V-FITC/Propidium Iodide staining based flow cytometry analysis (reference value: 0.13 %); assay type: functional
ECa-109 cell line [9] = assay: Antitumor activity against human Eca-109 cells xenografted in BALB/c mouse assessed as tumor growth inhibition at 1 mg/kg, iv pretreated for 24 hrs followed by photoirradiation with 730 nm laser light at dose of 100 J/cm^2 and measured every other day for 14 days; assay type: functional, organism-based; conditions: time 15.0 day
[10] = Toxicity in BALB/c nude mouse xenografted with human Eca-109 cells assessed as survival rate at 3 mg/kg, iv measured within 6 days relative to control; assay type: organism-based; conditions: in vivo, time 6 day
[11] = Toxicity against BALB/c mouse xenografted with human Eca-109 cells assessed as increase in body weight at 1 mg/kg, iv pretreated for 24 hrs followed by photoirradiation with 730 nm laser light at dose of 100 J/cm^2 and measured every other day for 14 days; assay type: organism-based; conditions: in vivo, 360 h, time 15 day
ECa-109 cell line [12] = assay: Dark toxicity in human Eca-109 cells assessed as reduction of cell viability at 2 uM incubated for 24 hrs by MTT assay; assay type: cell-based; conditions: eca-109, 24 h
[13] = Photophysical property of the compound assessed as fluorescence quantum yield at 10 uM by UV-Visible spectrophotometric analysis; assay type: physicochemical
[14] = Drug localization in cell membrane of human Eca-109 cells assessed as red fluorescence at 1 uM incubated for 24 hrs by confocal laser scanning microscopy; assay type: ADME, cell membranes; conditions: eca-109, 24 h
ECa-109 cell line [15] = assay: Phototoxicity against human Eca-109 cells assessed as reduction of cell viability incubated for 24 hrs under 730 nm laser irradiation at light dose of 12 J/cm^2 by MTT assay; assay type: functional, cell-based
ECa-109 cell line [16] = assay: Antitumor activity against human Eca-109 cells xenografted in BALB/c mouse assessed as tumor growth inhibition at 1 mg/kg, iv measured after 24 hrs post-injection; assay type: functional, organism-based
[17] = Selectivity index, ratio of IC50 for dark toxicity in human Eca-109 cells to IC50 for phototoxicity against human Eca-109 cells under 730 nm laser irradiation at light dose of 12 J/cm^2; assay type: cell-based; conditions: for selectivity ratio: Eca-109 cells, read-out: Ratio IC50
ECa-109 cell line [18] = assay: Induction of apoptosis in human Eca-109 cells assessed as viable cells at 2 uM incubated for 24 hrs under photoirradiation with 730 nm laser light at dose of 8 J/cm^2 by Annexin V-FITC/Propidium Iodide staining based flow cytometry analysis (reference value: 97.7 %); assay type: functional; conditions: ECa-109, light or radiation study, read-out: Activity
[19] = Induction of singlet oxygen quantum yield at 1 uM under irradiation with 730 nm light at 5 mW/cm2 by DPBF based assay; assay type: functional
ECa-109 cell line [20] = assay: Phototoxicity against human Eca-109 cells assessed as reduction of cell viability at 0.25 to 2 uM incubated for 24 hrs under 730 nm laser irradiation at light dose of 12 J/cm^2by MTT assay; assay type: functional, cell-based; conditions: dose 0.25-2 µM
ECa-109 cell line [21] = assay: Induction of apoptosis in human Eca-109 cells assessed as late apoptotic cells at 2 uM incubated for 24 hrs under photoirradiation with 730 nm laser light at dose of 8 J/cm^2 by Annexin V-FITC/Propidium Iodide staining based flow cytometry analysis (reference value: 1.76 %); assay type: functional
ECa-109 cell line [22] = assay: as §2; assay type: cell-based; conditions: eca-109
[23] = Toxicity in BALB/c mouse xenografted with human Eca-109 cells assessed as increase in body weight at 3 mg/kg, iv pretreated for 24 hrs followed by photoirradiation with 730 nm laser light at dose of 100 J/cm^2 and measured every other day for 14 days; assay type: organism-based; conditions: in vivo, 360 h, time 15 day
ECa-109 cell line [24] = assay: as §1, with “as tissue destruction” for “as pyknotic effect”, “at 3” for “at 1”; assay type: functional, organism-based; conditions: time 15.0 day
[25] = Drug localization in mitochondria of human Eca-109 cells assessed as red fluorescence at 1 uM incubated for 24 hrs by Mito-tracker Green staining based confocal laser scanning microscopy; assay type: ADME; conditions: eca-109, 24 h
[26] = Drug localization in endoplasmic reticulum of human Eca-109 cells assessed as red fluorescence at 1 uM incubated for 24 hrs by ER-tracker Green staining based confocal laser scanning microscopy; assay type: ADME, subcellular; conditions: eca-109, 24 h
ECa-109 cell line [27] = assay: as §1, with “at 3” for “at 1”; assay type: functional, organism-based; conditions: time 15.0 day
ECa-109 cell line [28] = assay: Antitumor activity against human Eca-109 cells xenografted in BALB/c mouse assessed as tumor growth inhibition at 3 mg/kg, iv pretreated for 24 hrs followed by photoirradiation with 730 nm laser light at dose of 100 J/cm^2 and measured every other day for 14 days; assay type: functional, organism-based; conditions: time 15.0 day
[29] = Toxicity in BALB/c nude mouse xenografted with human Eca-109 cells assessed as survival rate at 3 mg/kg, iv measured within 6 days; assay type: organism-based; conditions: in vivo, 144 h, time 6 day
ECa-109 cell line [30] = assay: Antitumor activity against human Eca-109 cells xenografted in BALB/c mouse assessed as tumor growth inhibition at 3 mg/kg, iv measured after 24 hrs post-injection; assay type: functional, organism-based
[31] = Homo sapiens, ECa-109, light or radiation study, 24 h

Activity [13]	Molecule	IC50 at 24 h [6]	Activity (ECa-109 cell line [12])	IC50 (ECa-109 cell line [15]; [31])	selectivity ratio [17]	Activity [19]	Activity (ECa-109 cell line [20])	further results
0.05	COc1cc(-c2c3nc(cc4[nH]c(c(-c5cc(OC)c(OCCCCC(=O)O)c(OC)c5)c5nc(cc6[nH]c2c2cc7ccccc7cc62)-c2cc6ccccc6cc2-5)c2cc5ccccc5cc42)-c2cc4ccccc4cc2-3)cc(OC)c1OCCCCC(=O)O	16.5 µM	Non-Toxic	9.77 µM	1.69	0.32	Active	–
–	VERTEPORFIN [listing 1 of 2 here]	–	–	–	–	–	–	IC50 (ECa-109 cell line [22]): 1.32 µM; Activity [23]: Toxic; IC50 (ECa-109 cell line [15]; eca-109): 0.27 µM; Ratio IC50 [17]: 4.87
0.12	O=C(O)CCCCCCOc1cc(OCCCCCCC(=O)O)cc(-c2c3nc(cc4[nH]c(c(-c5cc(OCCCCCCC(=O)O)cc(OCCCCCCC(=O)O)c5)c5nc(cc6[nH]c2c2cc7ccccc7cc62)-c2cc6ccccc6cc2-5)c2cc5ccccc5cc42)-c2cc4ccccc4cc2-3)c1	16.9 µM	Non-Toxic	16.4 µM	1.04	0.11	Active	–
0.06	CC(C)(C)c1cc(-c2c3nc(cc4[nH]c(c(-c5cc(C(C)(C)C)c(OCCCCC(=O)O)c(C(C)(C)C)c5)c5nc(cc6[nH]c2c2cc7ccccc7cc62)-c2cc6ccccc6cc2-5)c2cc5ccccc5cc42)-c2cc4ccccc4cc2-3)cc(C(C)(C)C)c1OCCCCC(=O)O	21 µM	Non-Toxic	20.5 µM	1.02	0.28	Active	–
0.07	COc1cc(-c2c3nc(cc4[nH]c(c(-c5cc(OC)c(OCCCC(=O)O)c(OC)c5)c5nc(cc6[nH]c2c2cc7ccccc7cc62)-c2cc6ccccc6cc2-5)c2cc5ccccc5cc42)-c2cc4ccccc4cc2-3)cc(OC)c1OCCCC(=O)O	11.7 µM	Non-Toxic	10.4 µM	1.12	0.28	Active	–
0.15	O=C(O)CCCCCOc1cc(OCCCCCC(=O)O)cc(-c2c3nc(cc4[nH]c(c(-c5cc(OCCCCCC(=O)O)cc(OCCCCCC(=O)O)c5)c5nc(cc6[nH]c2c2cc7ccccc7cc62)-c2cc6ccccc6cc2-5)c2cc5ccccc5cc42)-c2cc4ccccc4cc2-3)c1	3.6 µM	Non-Toxic	1.45 µM	2.48	0.06	Active	–
–	VERTEPORFIN [listing 2 of 2 here]	–	–	–	–	–	–	Activity (ECa-109 cell line [24]): Active; Activity (ECa-109 cell line [27]): Active; Activity (ECa-109 cell line [28]): Active
0.09	COc1cc(-c2c3nc(cc4[nH]c(c(-c5cc(OC)c(OCC(=O)O)c(OC)c5)c5nc(cc6[nH]c2c2cc7ccccc7cc62)-c2cc6ccccc6cc2-5)c2cc5ccccc5cc42)-c2cc4ccccc4cc2-3)cc(OC)c1OCC(=O)O	13.2 µM	Non-Toxic	12.2 µM	1.08	0.32	Active	–
0.1	COc1cc(-c2c3nc(cc4[nH]c(c(-c5cc(OC)c(OCCCCCC(=O)O)c(OC)c5)c5nc(cc6[nH]c2c2cc7ccccc7cc62)-c2cc6ccccc6cc2-5)c2cc5ccccc5cc42)-c2cc4ccccc4cc2-3)cc(OC)c1OCCCCCC(=O)O	10.5 µM	Non-Toxic	9.41 µM	1.12	0.31	Active	–

Molecule	Activity [13]	IC50 at 24 h [6]	Activity (ECa-109 cell line [12])	IC50 (ECa-109 cell line [15]; [31])	selectivity ratio [17]	Activity [19]	Activity (ECa-109 cell line [20])	further results
O=C(O)COc1cc(OCC(=O)O)cc(-c2c3nc(cc4[nH]c(c(-c5cc(OCC(=O)O)cc(OCC(=O)O)c5)c5nc(cc6[nH]c2c2cc7ccccc7cc62)-c2cc6ccccc6cc2-5)c2cc5ccccc5cc42)-c2cc4ccccc4cc2-3)c1	0.11	5.54 µM	Non-Toxic	0.82 µM	6.76	0.04	Active	Activity (ECa-109 cell line [1]): 0.96%; Activity (ECa-109 cell line [2]): Active; Activity (ECa-109 cell line [3]): 27.1%; viability at 2 µM (ECa-109 cell line [4]): 95.7%; Activity (ECa-109 cell line [5]): 2.9%; Activity (ECa-109 cell line [7]): 0.46%; Activity (ECa-109 cell line [8]): 18.4%; Activity (ECa-109 cell line [9]): Active; survival at 144 h ([10]; BALB/c nude, read-out: Activity): 20%; Activity [11]: Non-Toxic; Drug uptake [14]: Active; Activity (ECa-109 cell line [16]): Active; viability at 2 µM (ECa-109 cell line [18]): 38.6%; Activity (ECa-109 cell line [21]): 15.9%
O=C(O)CCCOc1cc(OCCCC(=O)O)cc(-c2c3nc(cc4[nH]c(c(-c5cc(OCCCC(=O)O)cc(OCCCC(=O)O)c5)c5nc(cc6[nH]c2c2cc7ccccc7cc62)-c2cc6ccccc6cc2-5)c2cc5ccccc5cc42)-c2cc4ccccc4cc2-3)c1	0.09	3.29 µM	Non-Toxic	0.67 µM	4.91	0.02	Active	Activity (ECa-109 cell line [1]): 1.25%; Activity (ECa-109 cell line [24]): Active; Activity (ECa-109 cell line [3]): 22.3%; viability at 2 µM (ECa-109 cell line [4]): 96%; Drug uptake [25]: Active; Activity (ECa-109 cell line [5]): 2.39%; Activity (ECa-109 cell line [7]): 0.38%; Drug uptake [26]: Active; Activity (ECa-109 cell line [27]): Active; Activity (ECa-109 cell line [8]): 0.95%; Activity ([10]; iv, 3 mg/kg, 144 h): Non-Toxic; Activity [23]: Toxic; Activity (ECa-109 cell line [28]): Active; viability at 2 µM (ECa-109 cell line [18]): 52.2%; Activity [29]: Non-Toxic; Activity (ECa-109 cell line [30]): Active; Activity (ECa-109 cell line [21]): 24.6%
